Data published in patent publication EP0888346B1, “CORALYNE ANALOGS AS TOPOISOMERASE INHIBITORS” (RUTGERS, THE STATE UNIVERSITY OF NEW JERSEY, priority 1996, dated 1997).

Experiments:
[1] = test system: yeast cells expressing human topoisomerase I; assay: Yeast cytotoxicity assay, strain expressing human topo I; assay type: cell-based, S. cerevisiae; settings: plates with 1 µM drug (camptothecin 0.5 µM), 3 days at 30°C
Excerpt: (§1) It has been established that yeast can survive when topoisomerase I function is obliterated, and that the topoisomerase I poisons only kill cells having a functional topoisomerase I (Bjornsti et al. Cancer Res. 49:6318-6323 (1989)).
(§2) The topoisomerase I-specific in vivo cytotoxicity assay was adapted from Knab et al. (Knab et al., J. Biol. Chem. 268:22322-22330 (1993)). In this system, various topo I genes cloned into the single copy yeast plasmid vector, YCpGAL1 (Knab et al., J. Biol. Chem. 268:22322-22330 (1993)), are expressed under the control of the GAL1 promoter in the JN2-134 strain of S. cerevisiae (MATa, rad52::LEU2, trp1, ade2-1,his7, ura3-52, isel, top1-1, leu2) (Bjornsti et al., Cancer Res. 49:6318-6323 (1989)). The topo I constructs in the vector are, respectively, the wild-type yeast topo I (YCpGAL-ScTOP1), a non-functional yeast topo I where the active site tyrosine-727 is mutated to a phenylalanine (YCpGAL1-Sctop1Y727F) (Knab et al., J. Biol. Chem. 268:22322-22330 (1993)), and the wild type human topoisomerase I (YCpGAL-hTOP1) (Bjornsti et al., Cancer Res. 49:6318-6323 (1989)). To qualitatively test the cytotoxicity and the topo I specificity of the drugs, yeast cells containing the specific plasmid were serially diluted (5-fold) and were grown in dropout medium supplemented with uracil and 2% galactose In addition, the plates contained: A: Control, no drug in the plate; B: Camptothecin (CPT), 0.5 µM; C: Coralyne, 1 µM; D: Methylenedioxy-dihydro-demethyl-coralyne (MDD-Coralyne), 1 µM, and E: Nitidine, 1 µM. The plates were grown for 3 days at 30°C to assess the lethal effect of the different compounds on the various topoisomerase I enzymes expressed in S. cerevisiae.and the drug being tested.

[2] = test system: yeast cells expressing functional yeast topoisomerase I; assay: Yeast cytotoxicity assay, strain expressing wild-type yeast topo I; assay type: cell-based, S. cerevisiae; settings: plates with 1 µM drug (camptothecin 0.5 µM), 3 days at 30°C
Excerpt: as §1, §2

[3] = test system: yeast cells expressing non-functional yeast topoisomerase I; assay: Yeast cytotoxicity assay, strain expressing non-functional yeast topo I; assay type: cell-based, S. cerevisiae; settings: plates with 1 µM drug (camptothecin 0.5 µM), 3 days at 30°C
Excerpt: as §1, §2

[4] = target: T1, recombinant CPT-K5 topoisomerase I (Homo sapiens, UniProt P11387, D533G); assay: Cleavage assay with camptothecin-resistant mutant topo I; assay type: biochemical; settings: relative to wildtype human topoisomerase I
T1 construct: 15 amino acid vector-derived fusion (pET-11a leader); made in house; host or cells: E. coli BL21(DE3)
T1 sequence (P11387 1-765 D533G): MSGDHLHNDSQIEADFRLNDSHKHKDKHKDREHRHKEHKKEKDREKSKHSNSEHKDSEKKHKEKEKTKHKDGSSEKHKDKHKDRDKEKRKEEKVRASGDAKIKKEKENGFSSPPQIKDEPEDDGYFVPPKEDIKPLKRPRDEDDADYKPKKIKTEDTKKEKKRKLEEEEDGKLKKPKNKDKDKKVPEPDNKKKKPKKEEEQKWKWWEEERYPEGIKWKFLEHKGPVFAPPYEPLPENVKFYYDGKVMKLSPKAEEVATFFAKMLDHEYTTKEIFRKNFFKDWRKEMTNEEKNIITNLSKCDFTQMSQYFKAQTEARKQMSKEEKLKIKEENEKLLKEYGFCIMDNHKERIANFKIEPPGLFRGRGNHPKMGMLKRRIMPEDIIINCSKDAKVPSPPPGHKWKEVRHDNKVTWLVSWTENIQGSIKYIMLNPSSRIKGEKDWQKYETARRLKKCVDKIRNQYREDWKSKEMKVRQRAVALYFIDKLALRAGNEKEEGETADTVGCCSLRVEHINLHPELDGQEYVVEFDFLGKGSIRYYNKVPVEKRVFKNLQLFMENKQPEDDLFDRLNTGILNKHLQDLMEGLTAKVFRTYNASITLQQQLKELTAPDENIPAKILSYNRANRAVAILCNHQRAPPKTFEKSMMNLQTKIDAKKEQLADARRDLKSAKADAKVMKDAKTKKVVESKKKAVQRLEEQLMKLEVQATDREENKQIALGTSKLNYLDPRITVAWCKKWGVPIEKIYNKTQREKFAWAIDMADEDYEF
Method: Cleavage assays for the recombinant topoisomerases I and calf thymus topoisomerases I and II were done as described (Liu et al., J. Biol. Chem. 258:15365-15370 (1983)). The plasmid YEpG DNA used for the cleavage assays was prepared and labeled at its 3'-end using the published procedures.

[5] = test system: Human lymphoblast RPMI 8402 cells; assay: MTT-microtiter plate tetrazolinium cytotoxicity assay (MTA); assay type: cell-based; settings: Homo sapiens, RPMI 8402, 96 h, read-out: Cytotoxicity RPMI 8402
Excerpt: (§3) The results were plotted and the IC50 then measured.

[6] = test system: human epidermoid carcinoma KB 3-1 cell line; assay: MTA cytotoxicity assay, epidermoid carcinoma cells; assay type: cell-based; settings: KB 3-1, 96 h, read-out: Cytotoxicity KB3-1
Method: as §3
(§4) The coralyne analog 7c was tested for its effectiveness against glioblastoma cells. The assay used was similar to that described above for the RPMI-8402 cell line. The results are shown in table 2 below which compares the effect of Compound 7c against the leukemia cell line (RPMI 8402), epidermal carncinoma (KB3-1) and glioblastoma (SF-268): Table 2

[7] = test system: glioblastoma cell line SF-268; assay: MTA cytotoxicity assay, glioblastoma cells; assay type: cell-based; settings: Homo sapiens, SF-268, 96 h, read-out: Cytotoxicity SF-268
Method: as §3, §4

Row | Compound | cytotoxicity against yeast cells expressing human topoisomerase I (in words) [1] | cytotoxicity against yeast cells expressing functional yeast topoisomerase I (in words) [2] | cytotoxicity against yeast cells expressing non-functional yeast topoisomerase I (in words) [3] | resistance of recombinant CPT-K5 topoisomerase I to the drug [4] | IC50 [5] | IC50 [6] | IC50 [7]
1 | COc1cc2c[n+](C)c3c4cc5c(cc4ccc3c2cc1OC)OCO5 [Nitidine, nitidine] | highly cytotoxic | not cytotoxic | not cytotoxic | less than 10 fold |  |  | 
2 | COc1cc2cc3c4cc(OC)c(OC)cc4cc[n+]3c(C)c2cc1OC [coralyne] | no cytotoxicity | resistant | no cytotoxicity |  | 3 µg/mL | 0.9 µg/mL | 0.1 µg/mL
3 | Methylenedioxy-dihydro-demethyl-coralyne [MDD-coralyne] | highly cytotoxic | not cytotoxic | not cytotoxic |  |  |  | 
